# US20150210984A1, “METHOD FOR R[…] IN VITRO” (priority 2011, published 2015)
# Tested on: HCV Genotype 3
# Test: Patient-derived monocytes fused to hepatocytes, HCV RNA by qPCR
# Format: cell-based
# Details: fused cells from patients with genotype 3 HCV; 3 to 7 days with telaprevir; FIG. 8
# Description: Patient derived monocytes from patients with genotype 1 and genotype 3 HCV were taken and incubated for a variety of different times (ranging from 3 to 7 days) with telaprevir at concentrations known to inhibit HCV RNA. The amount of HCV RNA was assessed using a standard qPCR technique and is expressed as the raw Ct value from the Corbett Rotorgene.
# CD14+ monocytes were positively selected from total PBMCs by magnetic cell separation, according to the manufacturer's instructions. The CD14+ cells obtained were counted and pelleted with an equal number of HuH 7.5 cells. The cell pellet was resuspended in pre-warmed polyethylene glycol 1500 (PEG 1500, Roche) over 1 minute then incubated at 37° C. for 2 minutes. […]
# RNA was extracted from fused cells immediately after fusion and following a 5 day incubation using TRIzol reagent (Invitrogen). Total RNA obtained was quantified using the RiboGreen assay (Invitrogen). HCV RNA was measured by reverse transcription-quantitative PCR (RT-qPCR) using the Quantitect viral nucleic acid detection kit (Qiagen) in 20 μL volumes with a TaqMan primer and probe for HCV detection (Applied Biosystems). 10-fold serial dilutions of PCR product corresponding to a 319 nucleotide segment between the 5′untranslated region and E1 region of the HCV genome were included as a quantitative standard. […]
compound,measurement,value
CCC[C@H](NC(=O)[C@@H]1[C@H]2CCC[C@H]2CN1C(=O)[C@@H](NC(=O)[C@@H](NC(=O)c1cnccn1)C1CCCCC1)C(C)(C)C)C(=O)C(=O)NC1CC1 [telaprevir],replication of HCV (HCV RNA),not inhibited
